Assay results published in ChEMBL document CHEMBL5550180, “Enhancing anti-cancer capacity: Novel class I/II HDAC inhibitors modulate EMT, cell cycle, and apoptosis pathways” (Bioorg Med Chem, 2024).
Activity calls are given as the source filed them. The calls are words filed in the database; no cut-off is given here.

Experiments:
[1] = Toxicity in zebrafish embryo at […] measured after 96 hrs post fertilization; parameters: species or system Danio rerio; settings: in vivo
A549 [2] = test: cells; type: functional, cell-based; settings: Homo sapiens, A549, 48 h
Description: Anticancer activity against human A549 cells assessed as inhibition of cell growth measured for 48 hrs by MTT assay

HT-29 [3] = test: cells; type: functional, cell-based; settings: Homo sapiens, HT-29, 48 h
Description: Anticancer activity against human HT-29 cells assessed as inhibition of cell growth measured for 48 hrs by MTT assay

NCI-H1299 = test: Anticancer activity against human NCI-H1299 cells assessed as reduction in cell viability at 10 to 40 uM incubated for 48 hrs by MTT assay; type: functional, cell-based; settings: dose 10-40 µM
A549 [4] = test: Anticancer activity against human A549 cells assessed as suppression of cell viability at 10 uM incubated for 48 hrs by MTT assay; type: functional, cell-based
HT-29 [5] = test: Anticancer activity against human HT-29 cells assessed as suppression of cell viability at 10 uM incubated for 48 hrs by MTT assay; type: functional, cell-based
A549 [6] = test: Anticancer activity against human A549 cells assessed as viable cells by measuring green fluorescence intensity measured for 48 hrs by Calcein AM staining based fluorescent microscopic analysis; type: functional, cell-based; settings: dose 1-20 µM
HT-29 [7] = test: Anticancer activity against human HT-29 cells assessed as viable cells by measuring green fluorescence intensity measured for 48 hrs by Calcein AM staining based fluorescent microscopic analysis; type: functional, cell-based; settings: dose 1-20 µM
A549 [8] = test: Inhibition of colony formation in human A549 cells at 125 to 250 nM measured for 10 days by crystal violet staining based analysis; type: functional, cell-based; settings: dose 125-250 nM, time 10.0 day
HT-29 [9] = test: Inhibition of colony formation in human HT-29 cells at 50 to 100 nM measured for 10 days by crystal violet staining based analysis; type: functional, cell-based; settings: dose 50-100 nM, time 10.0 day
[10] = molecular target: T1, Histone deacetylase (Homo sapiens) (UniProt Q13547+O15379+Q9UBN7+Q92769+Q9UQL6+Q8WUI4+Q9BY41+Q96DB2+P56524+Q9UKV0+Q969S8); test: Inhibition of HDAC in human A549 cells incubated for 48 hrs by Western blot analysis; type: cell-based; settings: dose 0.1-10 µM
[11] = molecular target: T1, Histone deacetylase (Homo sapiens); test: Inhibition of HDAC in human HT-29 cells incubated for 48 hrs by Western blot analysis; type: cell-based; settings: dose 0.1-10 µM
[12] = molecular target: T1, Histone deacetylase (Homo sapiens); test: Inhibition of HDAC in human HT-29 cells assessed as increase in histone acetylation level at 1 to 2 uM incubated for 48 hrs by Western blot analysis; type: cell-based; settings: dose 1-2 µM
[13] = molecular target: T1, Histone deacetylase (Homo sapiens); test: Inhibition of HDAC in human HT-29 cells assessed as increase in acetyl alpha-tubulin level at 1 to 2 uM incubated for 48 hrs by Western blot analysis; type: cell-based; settings: dose 1-2 µM
A549 [14] = test: Inhibition of cell migration in human A549 cells at 1.25 uM measured at 24 hrs by wound healing assay (reference value: 68.4%); type: functional
HT-29 [15] = test: Inhibition of cell migration in human HT-29 cells assessed as upregulation of E-cadherin level at 1 to 2 uM incubated for 48 hrs by Western blot analysis; type: functional, cell-based; settings: dose 1-2 µM
HT-29 [16] = test: Inhibition of cell migration in human HT-29 cells assessed as downregulation of vimentin level at 1 to 2 uM incubated for 48 hrs by Western blot analysis; type: functional, cell-based; settings: dose 1-2 µM
HT-29 [17] = test: Inhibition of cell migration in human HT-29 cells assessed as downregulation of slug level at 1 to 2 uM incubated for 48 hrs by Western blot analysis; type: functional, cell-based; settings: dose 1-2 µM
A549 [18] = test: Induction of cell cycle arrest in human A549 cells assessed as accumulation at G2/M phase at 2.5 to 5 uM incubated for 24 to 48 hrs by PI-staining based flow cytometric analysis; type: functional; settings: dose 2.5-5 µM, time 24-48 hrs
HT-29 [19] = test: Induction of cell cycle arrest in human HT-29 cells assessed as accumulation at G2/M phase at 2.5 to 5 uM incubated for 24 to 48 hrs by PI-staining based flow cytometric analysis; type: functional; settings: dose 2.5-5 µM, time 24-48 hrs
A549 [20] = test: Induction of cell cycle arrest in human A549 cells assessed as accumulation at sub G1 at 2.5 to 5 uM incubated for 24 to 48 hrs by PI-staining based flow cytometric analysis; type: functional; settings: dose 2.5-5 µM, time 24-48 hrs
A549 [21] = test: Induction of apoptosis in human A549 cells assessed as increase in PARP level at 2.5 to 5 uM incubated for 48 hrs by Western blot analysis; type: functional, cell-based; settings: dose 2.5-5 µM
A549 [22] = test: Induction of apoptosis in human A549 cells assessed as increase in caspase 3 level at 2.5 to 5 uM incubated for 48 hrs by Western blot analysis; type: functional, cell-based; settings: dose 2.5-5 µM
A549 [23] = test: Induction of apoptosis in human A549 cells assessed as upregulation of p53 expression at 2.5 to 5 uM incubated for 48 hrs by Western blot analysis; type: functional, cell-based; settings: dose 2.5-5 µM
A549 [24] = test: Induction of cell cycle arrest in human A549 cells assessed as effect on p21 level at 2.5 to 5 uM incubated for 48 hrs by Western blot analysis; type: functional, cell-based; settings: dose 2.5-5 µM
A549 [25] = test: Induction of cell cycle arrest in human A549 cells assessed as effect on cyclin B1 level at 2.5 to 5 uM incubated for 48 hrs by Western blot analysis; type: functional, cell-based; settings: dose 2.5-5 µM
A549 [26] = test: Anticancer activity against human A549 cells cultured as 3D spheroids assessed as suppression of cell growth at 10 uM incubated for 48 hrs by celltiter-glo luminescent assay; type: functional, cell-based
[27] = Toxicity in zebrafish embryo assessed as hatching rate at 0.5 to 2.5 uM measured after 72 hrs post fertilization by microscopic analysis; parameters: species or system Danio rerio; settings: in vivo, dose 0.5-2.5 µM
[28] = Toxicity in zebrafish embryo assessed as survival rate at 0.5 to 2.5 uM measured after 72 hrs post fertilization; parameters: species or system Danio rerio; settings: in vivo, dose 0.5-2.5 µM
[29] = Toxicity in zebrafish embryo assessed as effect on body length at 0.5 to 2.5 uM measured after 96 hrs post fertilization by microscopic analysis; parameters: species or system Danio rerio; settings: in vivo, dose 0.5-2.5 µM
[30] = Toxicity in zebrafish embryo assessed as formation of scoliosis at 0.5 to 2.5 uM measured after 96 hrs post fertilization by microscopic analysis; parameters: species or system Danio rerio; settings: in vivo, dose 0.5-2.5 µM
[31] = Toxicity in zebrafish embryo assessed as formation of spinal curvature at 0.5 to 2.5 uM measured after 96 hrs post fertilization by microscopic analysis; parameters: species or system Danio rerio; settings: in vivo, dose 0.5-2.5 µM
[32] = Toxicity in zebrafish embryo assessed as formation of spinal curvature at 1 to 5 uM measured after 96 hrs post fertilization by microscopic analysis; parameters: species or system Danio rerio; settings: in vivo, dose 1-5 µM
[33] = Toxicity in zebrafish embryo assessed as yolk sac edema at 0.5 to 2.5 uM measured after 96 hrs post fertilization by microscopic analysis; parameters: species or system Danio rerio; settings: in vivo, dose 0.5-2.5 µM
A549 [34] = test: Inhibition of cell migration in human A549 cells at 1.25 uM measured at 48 hrs by wound healing assay (reference value: 42.3%); values are per cent of control; settings: A549, 48 h
HT-29 [35] = test: Inhibition of cell migration in human HT-29 cells at 0.5 uM measured at 24 hrs by wound healing assay (reference value: 85.7%); values are per cent of control; settings: HT-29, 24 h
HT-29 [36] = test: Inhibition of cell migration in human HT-29 cells at 0.5 uM measured at 48 hrs by wound healing assay (reference value: 73.2%); values are per cent of control; settings: HT-29, 48 h
A549 [37] = test: Inhibition of cell migration in human A549 cells at 1.25 uM measured immediately by wound healing assay (reference value: 100%); values are per cent of control
HT-29 [38] = test: Inhibition of cell migration in human HT-29 cells at 0.5 uM measured immediately by wound healing assay (reference value: 100%); values are per cent of control

NC(=O)NO [HYDROXYUREA]
Activity [1]: Toxic

COc1ccc(S(=O)(=O)n2cc(Cc3ccc(C(=O)Nc4ccccc4N)cc3)c3ccccc32)cc1
IC50 (A549 [2]): 2.52 µM | IC50 (HT-29 [3]): 0.92 µM | Activity (NCI-H1299): Active | Activity (A549 [4]): Active | Activity (HT-29 [5]): Active | Activity (A549 [6]): Dose-Dependent Effect | Activity (HT-29 [7]): Dose-Dependent Effect | inhibition (A549 [8]): Active | inhibition (HT-29 [9]): Active | inhibition [10]: Active | inhibition [11]: Active | inhibition [12]: Active | inhibition [13]: Active | inhibition at 1.25 µM (A549 [14]): 77.4% | inhibition (HT-29 [15]): Active | inhibition (HT-29 [16]): Active | inhibition (HT-29 [17]): Active | Activity (A549 [18]): Active | Activity (HT-29 [19]): Active | Activity (A549 [20]): Active | Activity (A549 [21]): Active | Activity (A549 [22]): Active | Activity (A549 [23]): Active | Activity (A549 [24]): Active | Activity (A549 [25]): Active | Activity (A549 [26]): Active | Activity [27]: 100% | survival at 72 h, up to 2.5 µM [28]: ~100% | Activity [29]: Non-Toxic | Activity [30]: Non-Toxic | Activity [31]: Non-Toxic | Activity [32]: Non-Toxic | Activity [33]: Non-Toxic | wound area remaining at 1.25 µM (A549 [34]): 53.3% | wound area remaining at 0.5 µM (HT-29 [35]): 93.8% | wound area remaining at 0.5 µM (HT-29 [36]): 90.1% | wound area remaining at 1.25 µM (A549 [37]): 100% | wound area remaining at 0.5 µM (HT-29 [38]): 100%
